PubChem BioAssay (NCI)
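In this assay, cells in 96-well plates receive the compound at five concentrations for 48 hours. Endpoints are linearly interpolated between the surrounding concentrations. Abbreviation: GI50, concentration required for 50% inhibition of growth. TGI denotes the concentration required for complete inhibition of growth.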

Columns and labels:
Assay in all cases: inhibition of tumour cell growth, NCI panel, 48 h; in the data active = GI50 below about 0.43 µM; inactive = the rest
RPMI-8226 leukemia = tested on: RPMI-8226 leukemia
SK-MEL-5 melanoma = tested on: SK-MEL-5 melanoma
UO-31 renal = tested on: UO-31 renal
M14 melanoma = tested on: M14 melanoma
IGROV1 ovarian = tested on: IGROV1 ovarian
SF-268 CNS = tested on: SF-268 CNS
SNB-75 CNS = tested on: SNB-75 CNS
KM12 colon = tested on: KM12 colon
ACHN renal = tested on: ACHN renal
UACC-257 melanoma = tested on: UACC-257 melanoma
SK-OV-3 ovarian = tested on: SK-OV-3 ovarian
HT29 colon = tested on: HT29 colon
NCI-H23 lung = tested on: NCI-H23 lung
MDA-MB-231 breast = tested on: MDA-MB-231 breast
OVCAR-8 ovarian = tested on: OVCAR-8 ovarian
BT-549 breast = tested on: BT-549 breast
OVCAR-4 ovarian = tested on: OVCAR-4 ovarian
SK-MEL-28 melanoma = tested on: SK-MEL-28 melanoma
HOP-62 NSCLC = tested on: HOP-62 NSCLC
PC-3 prostate = tested on: PC-3 prostate
MALME-3M melanoma = tested on: MALME-3M melanoma
A498 renal = tested on: A498 renal
SNB-19 CNS = tested on: SNB-19 CNS
A549 NSCLC = tested on: A549 NSCLC
SR leukemia = tested on: SR leukemia
HOP-92 NSCLC = tested on: HOP-92 NSCLC
LOX IMVI melanoma = tested on: LOX IMVI melanoma
786-0 renal = tested on: 786-0 renal
TK-10 renal = tested on: TK-10 renal
OVCAR-5 ovarian = tested on: OVCAR-5 ovarian
SW-620 colon = tested on: SW-620 colon
HCT-15 colon = tested on: HCT-15 colon
HS 578T breast = tested on: HS 578T breast
SN12C renal = tested on: SN12C renal
HCC-2998 colon = tested on: HCC-2998 colon
MDA-MB-435 = tested on: MDA-MB-435
UACC-62 melanoma = tested on: UACC-62 melanoma
CAKI-1 renal = tested on: CAKI-1 renal
HCT-116 colon = tested on: HCT-116 colon
SK-MEL-2 melanoma = tested on: SK-MEL-2 melanoma
MOLT-4 leukemia = tested on: MOLT-4 leukemia
NCI/ADR-RES ovarian = tested on: NCI/ADR-RES ovarian
MCF7 breast = tested on: MCF7 breast
T-47D breast = tested on: T-47D breast
SF-539 CNS = tested on: SF-539 CNS
NCI-H522 lung = tested on: NCI-H522 lung
CCRF-CEM leukemia = tested on: CCRF-CEM leukemia
COLO 205 colon = tested on: COLO 205 colon
NCI-H226 lung = tested on: NCI-H226 lung
OVCAR-3 ovarian = tested on: OVCAR-3 ovarian
NCI-H460 lung = tested on: NCI-H460 lung
EKVX NSCLC = tested on: EKVX NSCLC
SF-295 CNS = tested on: SF-295 CNS
DU-145 prostate = tested on: DU-145 prostate
U251 CNS = tested on: U251 CNS
RXF 393 renal = tested on: RXF 393 renal
HL-60(TB) leukemia = tested on: HL-60(TB) leukemia
K-562 leukemia = tested on: K-562 leukemia

CCCCCCCCCNC(=O)/C=C/c1ccc(O)c(O)c1
32.1 µM: TGI (A498 renal)
1.75 µM: TGI (CCRF-CEM leukemia)
50.9 µM: TGI (RXF 393 renal)
50.3 µM: TGI (SNB-19 CNS)
59.3 µM: TGI (OVCAR-8 ovarian)
18.4 µM: TGI (HCT-116 colon)
29 µM: TGI (LOX IMVI melanoma) | TGI (UACC-62 melanoma)
39.2 µM: TGI (NCI-H23 lung)
23.5 µM: TGI (MDA-MB-435)
21.6 µM: TGI (ACHN renal)
29.7 µM: TGI (786-0 renal)
24.3 µM: TGI (OVCAR-3 ovarian)
19.4 µM: TGI (RPMI-8226 leukemia)
inactive: GI50 (RPMI-8226 leukemia) 0.61 µM | GI50 (SK-MEL-5 melanoma) 1.34 µM | GI50 (UO-31 renal) 1.42 µM | GI50 (M14 melanoma) 12.2 µM | GI50 (IGROV1 ovarian) 1.1 µM | GI50 (SF-268 CNS) 10.9 µM | GI50 (SNB-75 CNS) 15.4 µM | GI50 (KM12 colon) 9.02 µM | GI50 (ACHN renal) 6.96 µM | GI50 (UACC-257 melanoma) 29.5 µM | GI50 (SK-OV-3 ovarian) 19.4 µM | GI50 (HT29 colon) 17.9 µM | GI50 (NCI-H23 lung) 17.7 µM | GI50 (MDA-MB-231 breast) 13.2 µM | GI50 (OVCAR-8 ovarian) 24 µM | GI50 (BT-549 breast) 32.4 µM | GI50 (OVCAR-4 ovarian) 13.4 µM | GI50 (SK-MEL-28 melanoma) 19.7 µM | GI50 (HOP-62 NSCLC) 12.2 µM | GI50 (PC-3 prostate) 3.61 µM | GI50 (MALME-3M melanoma) 13.2 µM | GI50 (A498 renal) 16.2 µM | GI50 (SNB-19 CNS) 21.4 µM | GI50 (A549 NSCLC) 33.3 µM | GI50 (SR leukemia) 2.76 µM | GI50 (HOP-92 NSCLC) 2.52 µM | GI50 (LOX IMVI melanoma) 11 µM | GI50 (786-0 renal) 14.3 µM | GI50 (TK-10 renal) 11.1 µM | GI50 (OVCAR-5 ovarian) 21.5 µM | GI50 (SW-620 colon) 3.06 µM | GI50 (HCT-15 colon) 5.25 µM | GI50 (HS 578T breast) 0.451 µM | GI50 (SN12C renal) 10.8 µM | GI50 (HCC-2998 colon) 16 µM | GI50 (MDA-MB-435) 7.58 µM | GI50 (UACC-62 melanoma) 15.3 µM | GI50 (CAKI-1 renal) 3.91 µM | GI50 (HCT-116 colon) 4.94 µM | GI50 (SK-MEL-2 melanoma) 17.3 µM | GI50 (MOLT-4 leukemia) 0.474 µM | GI50 (NCI/ADR-RES ovarian) 15.4 µM | GI50 (MCF7 breast) 28.3 µM | GI50 (T-47D breast) 15 µM | GI50 (SF-539 CNS) 15.1 µM | GI50 (NCI-H522 lung) 0.833 µM | GI50 (COLO 205 colon) 15.3 µM | GI50 (NCI-H226 lung) 10.4 µM | GI50 (OVCAR-3 ovarian) 5.95 µM | GI50 (NCI-H460 lung) 14.1 µM | GI50 (EKVX NSCLC) 37.5 µM | GI50 (SF-295 CNS) 18.8 µM | GI50 (DU-145 prostate) 17 µM | GI50 (U251 CNS) 10.2 µM | GI50 (RXF 393 renal) 19.2 µM
57.1 µM: TGI (NCI-H460 lung)
25.5 µM: TGI (NCI-H226 lung)
23.6 µM: TGI (KM12 colon)
24.2 µM: TGI (CAKI-1 renal)
46.8 µM: TGI (NCI/ADR-RES ovarian)
21 µM: TGI (SR leukemia)
85.2 µM: TGI (SNB-75 CNS)
17.3 µM: TGI (HOP-92 NSCLC)
31.4 µM: TGI (MALME-3M melanoma) | TGI (HCC-2998 colon)
9.91 µM: TGI (NCI-H522 lung)
30.4 µM: TGI (SW-620 colon)
17.4 µM: TGI (MOLT-4 leukemia)
34.7 µM: TGI (MDA-MB-231 breast)
> 100 µM: TGI (HT29 colon) | TGI (BT-549 breast) | TGI (OVCAR-4 ovarian) | TGI (SK-MEL-28 melanoma) | TGI (A549 NSCLC) | TGI (MCF7 breast) | TGI (EKVX NSCLC)
36.2 µM: TGI (PC-3 prostate)
49.5 µM: TGI (SK-OV-3 ovarian)
10.8 µM: TGI (SK-MEL-5 melanoma)
23.1 µM: TGI (SN12C renal)
31.9 µM: TGI (SF-268 CNS)
active: GI50 (CCRF-CEM leukemia) 0.0426 µM
38.2 µM: TGI (SF-539 CNS)
59.9 µM: TGI (T-47D breast)
69.6 µM: TGI (UACC-257 melanoma)
45.8 µM: TGI (OVCAR-5 ovarian)
39.7 µM: TGI (TK-10 renal)
19.9 µM: TGI (HCT-15 colon)
82.1 µM: TGI (DU-145 prostate)
23.3 µM: TGI (U251 CNS)
12.9 µM: TGI (HS 578T breast)
14.9 µM: TGI (UO-31 renal)
25.1 µM: TGI (HOP-62 NSCLC)
54.3 µM: TGI (COLO 205 colon)
26.7 µM: TGI (M14 melanoma)
40.3 µM: TGI (SF-295 CNS)
37.2 µM: TGI (SK-MEL-2 melanoma)
5.49 µM: TGI (IGROV1 ovarian)

COc1cc2c(cc1OC)CC1c3cc(OC)c(OC)cc3CCN1CC2 (stereo unspecified)
> 100 µM: TGI (RPMI-8226 leukemia) | TGI (SK-MEL-5 melanoma) | TGI (UO-31 renal) | TGI (M14 melanoma) | TGI (HL-60(TB) leukemia) | TGI (IGROV1 ovarian) | TGI (SF-268 CNS) | TGI (SNB-75 CNS) | TGI (KM12 colon) | TGI (ACHN renal) | TGI (UACC-257 melanoma) | TGI (SK-OV-3 ovarian) | TGI (HT29 colon) | TGI (MDA-MB-231 breast) | TGI (OVCAR-8 ovarian) | TGI (BT-549 breast) | TGI (OVCAR-4 ovarian) | TGI (SK-MEL-28 melanoma) | TGI (HOP-62 NSCLC) | TGI (PC-3 prostate) | TGI (A498 renal) | TGI (A549 NSCLC) | TGI (SR leukemia) | TGI (HOP-92 NSCLC) | TGI (786-0 renal) | TGI (TK-10 renal) | TGI (OVCAR-5 ovarian) | TGI (SW-620 colon) | TGI (K-562 leukemia) | TGI (HCT-15 colon) | TGI (HS 578T breast) | TGI (SN12C renal) | TGI (HCC-2998 colon) | TGI (MDA-MB-435) | TGI (UACC-62 melanoma) | TGI (CAKI-1 renal) | TGI (HCT-116 colon) | TGI (SK-MEL-2 melanoma) | TGI (MOLT-4 leukemia) | TGI (NCI/ADR-RES ovarian) | TGI (MCF7 breast) | TGI (T-47D breast) | TGI (SF-539 CNS) | TGI (NCI-H522 lung) | TGI (CCRF-CEM leukemia) | TGI (COLO 205 colon) | TGI (NCI-H226 lung) | TGI (OVCAR-3 ovarian) | TGI (NCI-H460 lung) | TGI (EKVX NSCLC) | TGI (SF-295 CNS) | TGI (DU-145 prostate) | TGI (U251 CNS) | TGI (RXF 393 renal)
76.2 µM: TGI (SNB-19 CNS)
68 µM: TGI (NCI-H23 lung)

CC(=O)OC[C@@]12Cc3ccc(C)c(O)c3[C@]1(C)[C@@H](OC(C)=O)[C@]1(O)[C@H]([C@@H](OC(=O)c3ccccc3)[C@@H](C)[C@H]1OC(C)=O)[C@H]2OC(C)=O
> 50 µM: TGI (SK-MEL-5 melanoma) | TGI (UO-31 renal) | TGI (M14 melanoma) | TGI (HL-60(TB) leukemia) | TGI (IGROV1 ovarian) | TGI (SF-268 CNS) | TGI (SNB-75 CNS) | TGI (KM12 colon) | TGI (ACHN renal) | TGI (UACC-257 melanoma) | TGI (SK-OV-3 ovarian) | TGI (NCI-H23 lung) | TGI (MDA-MB-231 breast) | TGI (OVCAR-8 ovarian) | TGI (BT-549 breast) | TGI (OVCAR-4 ovarian) | TGI (HOP-62 NSCLC) | TGI (PC-3 prostate) | TGI (A498 renal) | TGI (SNB-19 CNS) | TGI (SR leukemia) | TGI (HOP-92 NSCLC) | TGI (LOX IMVI melanoma) | TGI (786-0 renal) | TGI (TK-10 renal) | TGI (OVCAR-5 ovarian) | TGI (SW-620 colon) | TGI (K-562 leukemia) | TGI (HCT-15 colon) | TGI (HS 578T breast) | TGI (SN12C renal) | TGI (HCC-2998 colon) | TGI (MDA-MB-435) | TGI (UACC-62 melanoma) | TGI (CAKI-1 renal) | TGI (HCT-116 colon) | TGI (SK-MEL-2 melanoma) | TGI (MOLT-4 leukemia) | TGI (NCI/ADR-RES ovarian) | TGI (MCF7 breast) | TGI (T-47D breast) | TGI (SF-539 CNS) | TGI (NCI-H522 lung) | TGI (CCRF-CEM leukemia) | TGI (COLO 205 colon) | TGI (NCI-H226 lung) | TGI (OVCAR-3 ovarian) | TGI (NCI-H460 lung) | TGI (EKVX NSCLC) | TGI (SF-295 CNS) | TGI (DU-145 prostate) | TGI (U251 CNS) | TGI (RXF 393 renal)
